Entries after “also recorded” stand apart in the source; their conditions may differ.
Tests used:
Assay type in all cases: cell-based
[1] = tested on: CHO cells stably expressing Firefly luciferase (FLuc); experiment: Firefly luciferase assay in CHO cells stably expressing FLuc transfected with Rheb vectors; settings: day 7, normalised to cell number
Experimental: CHO cells stably expressing Firefly luciferase (FLuc) or Gaussia luciferase (GLuc) as indicated were transfected using Lipofectamine3000 with an empty vector (EV) or vectors for Rheb WT, S21L, T23M, G29S, Y35N or E40K and also treated with the mTOR inhibitor AZD8055 at 100 nM for the total duration where indicated. Fluc and GLuc assays were performed 24 h after transfection and then every 48 h for 7 days. Assay results are normalised to cell number. GLuc-CHO cells were harvested for SDS-PAGE and Western Blot analysis at the 168 h (7-day) time-point to probe for intracellular GLuc, FLAG (Rheb) and actin, as ‘loading control’. […] In (E), secreted GLuc was monitored every 4 h from 24 h to 60 h showing the rate of secretion of GLuc was higher when Rheb-T23M is expressed as compared to Rheb-Y35N. The pattern for intracellular levels of Gaussia luciferase (assessed by immunoblot of cell lysates harvested at 7 days post transfection) more closely resemble those intracellular firefly luciferase (F) with little change compared to either the empty vector or WT while still retaining heightened mTORC1 signalling as indicated by the elevated levels of P-S6K1 Thr389 compared to cells transfected with the empty vector. […]

[2] = tested on: CHO cells; experiment: Growth of transfected CHO cells in medium with 10%, 1%, 0.5% or 0% FBS (cell counts over 7 days)
Experimental: CHO cells were seeded into 24-well plates at 5,000 cells/well. […] 24 h after transfection, cells were transferred to medium containing 10%, 1%, 0.5% or 0% FBS as indicated. Every 24 h for 7 days, cells were trypsinized (from different dishes on each occasion) and counted on a haemocytometer. Growth medium was changed every 2 days.
CHO cells were seeded into 24-well plates at 5,000 cells/well. […] 24 h after transfection, cells were transferred to media (Ham's F12 from Life Technologies, Cat. No. 11765054) containing 10%, 1%, 0.5% or 0% foetal bovine serum, as indicated. Cells were trypsinized and counted on a haemocytometer every 24 h for 7 days. Growth medium was changed every 2 days.

[3] = tested on: mTORC1 signalling; experiment: mTORC1 signalling (Western blot, S6K1 and rpS6) in transfected CHO cells starved of serum and amino acids, with or without TSC1/2 co-transfection
Experimental: GTP. GST-Rheb bound to GDP or GTP was pulled down using glutathione beads and the nucleotides were then separated by thin-layer chromatography and visualized by phosphorimager. The positions of GDP and GTP are shown (FIG. 1A). […] FIGS. 1C-1D: CHO cells were co-transfected using Lipofectamine 3000 with vectors encoding wildtype (WT) Rheb or the indicated mutants and TSC1/2 as indicated. 36 h after transfection, cells were transferred to Ham's F12 media lacking FBS for 16 h. Cells were the transferred to Dulbecco's phosphate-buffered saline (D-PBS, which lacks amino acids) for 1 h before cell lysates were harvested for SDS-PAGE and Western Blotting analysis using the indicated antibodies.

[4] = tested on: mTORC1 localisation at the lysosome; experiment: Immunofluorescence of mTOR and LAMP1 colocalisation in serum-starved transfected CHO cells; settings: medium lacking FBS for 16 h
Experimental: 24 h after transfection cells were transferred to medium lacking FBS for 16 hours. Cells were fixed with 4% paraformaldehyde, permeabilized with 0.05% Triton X-100, blocked with 10% normal donkey serum before LAMP1 and then anti-mTOR antibodies were applied overnight. Alexa Fluor™ 488 and 594-labelled secondary antibodies were applied before cells were mounted and stained with DAPI.
24 h after transfection cells were transferred to medium lacking FBS for 16 h. Cells were fixed with 4% paraformaldehyde, permeabilized with 0.05% Triton X-100, blocked with 10% normal donkey serum before LAMP1 and mTOR antibodies were applied overnight. Alexa Fluor™ 488 and 594 secondary antibodies were applied before cells were mounted and stained with DAPI.

[5] = tested on: CHO cells stably expressing Gaussia luciferase (GLuc); experiment: Secreted Gaussia luciferase assay in CHO cells stably expressing GLuc transfected with Rheb vectors
Experimental: CHO cells stably expressing Firefly luciferase (FLuc) or Gaussia luciferase (GLuc) as indicated were transfected using Lipofectamine3000 with an empty vector (EV) or vectors for Rheb WT, S21L, T23M, G29S, Y35N or E40K and also treated with the mTOR inhibitor AZD8055 at 100 nM for the total duration where indicated. Fluc and GLuc assays were performed 24 h after transfection and then every 48 h for 7 days. Assay results are normalised to cell number. GLuc-CHO cells were harvested for SDS-PAGE and Western Blot analysis at the 168 h (7-day) time-point to probe for intracellular GLuc, FLAG (Rheb) and actin, as ‘loading control’. […] However, Rheb-T23M and —Y35N caused a significant 3-fold increase in secreted Gaussia luciferase that was also seen with E40K and was prevented by treatment with AZD8055 (C/D [histogram of day 7]). In (E), secreted GLuc was monitored every 4 h from 24 h to 60 h showing the rate of secretion of GLuc was higher when Rheb-T23M is expressed as compared to Rheb-Y35N. The pattern for intracellular levels of Gaussia luciferase (assessed by immunoblot of cell lysates harvested at 7 days post transfection) more closely resemble those intracellular firefly luciferase (F) with little change compared to either the empty vector or WT while still retaining heightened mTORC1 signalling as indicated by the elevated levels of P-S6K1 Thr389 compared to cells transfected with the empty vector. CHO cells expressing Rheb-T23M, Y35N and E40K show a small increases in general protein synthesis but a marked increase in secreted Gaussia protein that is blocked by mTOR inhibition. Thus, Rheb[T23M] selectively promotes production of the secreted protein GLuc in a process that requires mTOR signalling.
Constructs were introduced into CHO cells using Lipofectamine3000 (Life Technologies) according to the manufacturer's protocol. Cell lines stably expressing secreted luciferase were generated by cloning the GLuc gene with a signal sequence from Nanolight Technology (see paper sent with this version) and cloning this into the pcDNA4 commercially available vector where gene expression was driven by a CMV promoter. The subsequent vectors were transfected, using lipofectamine, into CHO-S freestyle suspension cells and grown in CD-CHO media and then stable transfectant pools selected by addition of zeocin antibiotic. Once stable pools had emerged these were subjected to limited dilution cloning to obtain a range of pools with different secreted GLuc expression levels. Methods as are described, for example, in Josse et al. (2009) Biotechnology and Bioengineering 105: 556-566.
For Gaussia luciferase, we employed the BioLux® Gaussia Luciferase Assay Kit (New England Biolabs (NEB), Cat. No. E3300S) and for firefly luciferase the Luciferase Assay System from Promega (Cat. No. E1500). Cells were grown in Ham's F12 medium F12 nutrient mix, Ham's (Life Technologies, Cat. No. 11765054).
CHO cells stably expressing Firefly luciferase (FLuc; which is cytoplasmic) or Gaussia luciferase (GLuc; which is secreted) as indicated were transfected using Lipofectamine3000 with an empty vector (EV) or vectors for Rheb WT, S21L, T23M, G29S, Y35N or E40K and treated with the mTOR inhibitor AZD8055 at 100 nM for the total duration where appropriate. Fluc and GLuc assays were performed at 24 h after transfection and then every 48 h for 7 days. Assay results were normalised to cell number. […]

[6] = tested on: mTORC1 and ER Stress activation markers; experiment: Western blot for mTORC1 and ER stress activation markers in ExpiCHO cells stably expressing Rheb variants

For “Rheb-T23M: human Rheb protein with a methionine variant at residue 23 (T23M), SEQ ID NO. 3”, the “increase in synthesis of intracellular Firefly luciferase compared to the empty vector” value [1] was “ca. 1.2 fold”, the “cell growth in serum-free medium” value ([2]; 0% FBS) was “allows CHO cells to grow efficiently in serum-free medium” and the “cell growth in 0.5% FBS” value ([2]; 0.5% FBS) was “significant growth advantage over the other Rheb mutants; also recorded: substantially greater proliferation”. For the same substance, the “cell growth in medium with 10% and 1% FBS” value ([2]; 10% or 1% FBS) was “no effect on cell growth”, the “mTORC1 signalling in the absence of upstream activation” value ([3]; no serum 16 h, D-PBS 1 h, compared to empty vector and Rheb-WT) was “increased mTORC1 signalling over both the empty vector and Rheb-WT” and the “mTORC1 signalling when co-transfected with TSC1/TSC2” value ([3]; no serum and amino acids, co-transfected with TSC1/TSC2) was “no reduction”. For the same substance, the “mTOR localisation to the lysosome (overlap with LAMP1)” value [4] was “promote localisation; also recorded: strong mTOR localisation on lysosomes”, the “increase in secreted Gaussia luciferase” value ([5]; day 7, normalised to cell number) was 3 fold and the “rate of secretion of GLuc” value ([5]; monitored every 4 h from 24 h to 60 h, compared to Rheb-Y35N) was “higher”. The “ER stress response (Western blot markers)” value [6] was “mild ER stress response” and the “mTORC1 signalling (Western blot markers)” value [6] was “increased mTORC1 signalling”.

From patent US12492232B2, “Methods for producing proteins” (South Australian Health and Medical Research Institute …, priority 2018, dated 2025)
